Measurements taken from PMC11662004 (Communications Chemistry, 2024).

Tests used:
NgTet1 = target: T1, NgTet1 (Naegleria gruberi, UniProt D2W6T1); assay: AlphaScreen competition assay with biotinylated 5mC dsDNA; type: binding; settings: 100 nM NgTet1, 50 nM 5mC dsDNA; for competition pIC50 NgTet1: n = 2
T1 construct: His6-tagged full-length Naegleria gruberi NgTet1 (321 a. a.) protein with a thrombin cleavage site; made in house; host or cells: E. coli BL21(DE3)
T1 sequence (D2W6T1 1-321): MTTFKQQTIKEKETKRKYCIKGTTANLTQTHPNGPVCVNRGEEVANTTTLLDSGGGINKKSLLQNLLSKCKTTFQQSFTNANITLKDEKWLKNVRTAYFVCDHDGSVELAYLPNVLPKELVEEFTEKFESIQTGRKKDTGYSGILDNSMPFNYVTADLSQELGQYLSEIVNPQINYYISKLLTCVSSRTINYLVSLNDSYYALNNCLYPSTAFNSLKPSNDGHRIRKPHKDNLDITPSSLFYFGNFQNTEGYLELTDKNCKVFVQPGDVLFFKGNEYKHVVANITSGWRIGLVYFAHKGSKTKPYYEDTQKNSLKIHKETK
Description: (§1) AlphaScreen™ Histidine (Nickel Chelate) Detection Kit was used to evaluate displacement of […] (^5mC dsDNA)[33],[34]. Competitor DNA oligomers in assay buffer were manually dispensed onto 384-well ProxiPlates (5 μL) in a 2-fold dilution series. His6-tagged NgTet1 or TET2CDΔLCI in assay buffer was added (5 μL), and the mixture was pre-incubated with the competitor DNA at room temperature for 10 min. Cofactors and biotinylated ^5mC dsDNA in assay buffer were added (5 μL), and the mixture was further incubated at room temperature for 10 min. A mixture of AlphaScreen beads (1:62.5 dilution) in assay buffer was added (5 μL), and the full mixture was incubated at room temperature for 1 h. The final mixtures (20 μL) contained 100 nM NgTet1 (50 nM ^5mC dsDNA) or 12.5 nM TET2CDΔLCI (12.5 nM ^5mC dsDNA), 50 μM sodium L-ascorbate, 5 μM (NH4)2Fe(SO4)2, and 5 μM disodium NOG in assay buffer (50 mM HEPES [pH 7.3], 150 mM NaCl, 0.1% v/v BSA, 0.01% v/v Tween® 20). For the assay interference counter screen, His6-tagged TET protein and biotinylated ^5mC dsDNA were replaced with 1.6 nM biotinylated His6 peptide. Chemiluminescence was measured on a PHERAstar FS/FSX (BMG Labtech) equipped with an AlphaScreen 680 570 module. All AlphaScreen bead manipulations were performed under subdued lighting. Inhibition data was normalised to reactions containing no competitor and fitted using “log(inhibitor) vs. response - Variable slope (four parameters)” non-linear regression model on GraphPad Prism 5. […]
(§2) Fig. S5 TETs bind to DNA in a sequence- and modification-independent manner. A binding assay between a biotinylated 5mC dsDNA oligomer and His6-tagged TET was developed using AlphaScreen Histidine (Nickel Chelate) assay. […] Conditions: a 100 nM NgTet1 (50 nM 5mC dsDNA), b 12.5 nM TET2CDΔLCI (12.5 nM 5mC dsDNA), c 1.6 nM biotinylated His6 peptide. Each assay was supplemented with 50 μM sodium L-ascorbate, 5 μM (NH4)2Fe(SO4)2, and 5 μM disodium NOG. Data shown as the mean of three to four experimental replicates (n = 3–4; mean ± SD); tabulated data reported as the mean of two independent replicates (n = 2).

TET2CDΔLCI = target: T2, TET2CDΔLCI (Homo sapiens, UniProt Q6N021); assay: as above; type: binding; settings: 12.5 nM TET2CDΔLCI, 12.5 nM 5mC dsDNA; for competition pIC50 TET2CDΔLCI: n = 2
T2 construct: FLAG-[thrombin cleavage site]-SUMO (N); made in house; host or cells: E. coli
Description: as §1, §2

Row | Substance | IC50 (NgTet1) | competition pIC50 NgTet1 (NgTet1) | IC50 (TET2CDΔLCI) | competition pIC50 TET2CDΔLCI (TET2CDΔLCI)
1 | 5HC DNA: non-methylated DNA of the same sequence, 5'-ACC ACC GGT GGT-3', non-substrate (DNA ACCACCGGTGGT; DNA, backbone not given here) | 57.5 µM | 4.24 | 8.91 µM | 5.05
2 | AT DNA: double-stranded self-complementary 5'-ACC ACA TGT GGT-3', CpG replaced by ApT (DNA ACCACATGTGGT; DNA, backbone and methylation of C not given here; self-complementary duplex) | 56.2 µM | 4.25 | 4.57 µM | 5.34
